Results on five compounds are retold here after ChEMBL document CHEMBL1150851, “Naphthopyranone glycosides from Paepalanthus microphyllus” (J Nat Prod, 2001).

Data set [1] relates to Human immunodeficiency virus 1. The experiment in a line: Antiviral activity against HIV1 MN infected in human C8166 cells assessed as reduction in antigen gp120 production by ELISA. The class given is functional, organism-based. The conditions noted are these: Human immunodeficiency virus 1, MN. Background: In an ELISA, binding on a coated surface is turned into a signal by an enzyme label.

Data set [2] in a line: Cytotoxicity against uninfected human C8166 cells by XTT-formazan method. The conditions noted are these: read-out: TC50 (the source's name). The format is cell-based.
The test system of data set [3] is Human immunodeficiency virus 1. The experiment in a line: Antiviral activity against HIV1 3B infected in human C8166 cells assessed as syncytia formation at 5 fold EC50 preincubated for 5 to 6 days before infection measured after 2 days postinfection by XTT-formazan method. The class given is functional, organism-based. In general terms: Tetrazolium dyes change colour on reduction, which living cells bring about.

Data set [4] can be described thus: Selectivity index, ratio of TC50 for uninfected human C8166 cells to EC50 for HIV1 MN infected in human C8166 cells. The format is toxicity, cell-based. The conditions noted are these: uninfected C8166 cells and HIV-1 MN-infected C8166 cells, read-out: Selectivity Index.

SMILES strings stand for the structures. ≈ marks a conversion by molar mass, not a printed value. Calls of active or inactive are those of the source. The rule behind the calls is not given here.

Regarding `COc1cc(O[C@@H]2O[C@H](CO)[C@@H](O)[C@H](O)[C@H]2O)c2c(O)c3c(=O)oc(C)cc3c(OC)c2c1`, the EC50 in data set [1] was found to be 38 µg/mL (≈ 81.8 µM). The CC50 in data set [2] turned out to be 160 µg/mL (≈ 345 µM). Further, the outcome in data set [3] was inactive. Further, the selectivity ratio in data set [4] worked out at 4.2.

With `COc1cc(O[C@@H]2O[C@H](CO[C@@H]3O[C@H](CO)[C@@H](O)[C@H](O)[C@H]3O)[C@@H](O)[C@H](O)[C@H]2O)c2c(O)c3c(=O)oc(C)cc3c(OC)c2c1`, in data set [1], the EC50 came out at 75 µg/mL (≈ 120 µM). The CC50 in data set [2] was 150 µg/mL (≈ 239 µM). The result in data set [3] was inactive. Moreover, in data set [4], the selectivity ratio turned out to be 2.

As for `COc1cc(O[C@@H]2O[C@H](CO[C@@H]3OC[C@H](O)[C@H](O)[C@H]3O)[C@@H](O)[C@H](O)[C@H]2O)c2c(O)c3c(=O)oc(C)cc3c(OC)c2c1`, in data set [1], the EC50 was 18 µg/mL (≈ 30.2 µM). Also, the CC50 in data set [2] was found to be 160 µg/mL (≈ 268 µM). Further, the outcome in data set [3] was inactive. Besides, the selectivity ratio in data set [4] is 8.9.

As to `COc1cc(O[C@@H]2O[C@H](CO[C@@H]3O[C@@H](C)[C@H](O)[C@@H](O)[C@H]3O)[C@@H](O)[C@H](O)[C@H]2O)c2c(O)c3c(=O)oc(C)cc3c(OC)c2c1`, the concentration giving a half-maximal response (EC50) in data set [1] was 30 µg/mL (≈ 49.1 µM). In data set [2], the CC50 is 100 µg/mL (≈ 164 µM). For the same compound, the outcome in data set [3] was inactive. Moreover, the selectivity ratio in data set [4] turned out to be 3.3.

For the compound `Cc1cn([C@H]2C[C@H](N=[N+]=[N-])[C@@H](CO)O2)c(=O)[nH]c1=O` [ZIDOVUDINE], in data set [1], the EC50 came to 0.016 µg/mL (≈ 0.0599 µM). Moreover, the CC50 in data set [2] is more than 1000 µg/mL.

Usually EC50 stands for the concentration giving half of the maximal effect.
